From US12139492B2 (Endotarget Inc., priority 2021, dated 2024) come the findings set out here.

For experiment [1], the system named is JeKo-1 cells. Briefly: Antiproliferative effect, MTS cell viability assay, JeKo-1 cells. It counts as cell-based. Particulars: Homo sapiens; JeKo-1 mantle cell lymphoma cells; read-out: IC50 (anti-proliferation) JeKO-1 cells. In outline:
(§1)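 Readout was MTS-derived formazan absorbance (490 nm) reflecting metabolically active cells. Treatment lasted 72 h over a 0–10 μM range (0.001, 0.01, 0.1, 1, 10 μM) in JeKo-1 and Mino B-cell malignancy cells.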
For orientation: Tetrazolium assays rely on reduction of a dye to a coloured formazan, in cell work by metabolically active cells.

Experiment [2] relates to Mino cells. Kind of experiment: Antiproliferative effect, MTS cell viability assay, Mino cells. Type of experiment: cell-based. Particulars: Homo sapiens, MINO, Mino mantle cell lymphoma cells; read-out: IC50 (anti-proliferation) Mino cells. In outline:
as §1

The target in experiment [3] is BTK (Homo sapiens, UniProt Q06187). Briefly: Degradation of BTK protein in Namalwa cells (Western blot; DC50, Dmax). Particulars: for DC50: BTK degradation, cell line not given. A general note: Immunoblotting shows a protein as a band on a membrane.

A value given as a limit tells only on which side of the number the result lay.

Chain of BTK (Q06187 whole entry): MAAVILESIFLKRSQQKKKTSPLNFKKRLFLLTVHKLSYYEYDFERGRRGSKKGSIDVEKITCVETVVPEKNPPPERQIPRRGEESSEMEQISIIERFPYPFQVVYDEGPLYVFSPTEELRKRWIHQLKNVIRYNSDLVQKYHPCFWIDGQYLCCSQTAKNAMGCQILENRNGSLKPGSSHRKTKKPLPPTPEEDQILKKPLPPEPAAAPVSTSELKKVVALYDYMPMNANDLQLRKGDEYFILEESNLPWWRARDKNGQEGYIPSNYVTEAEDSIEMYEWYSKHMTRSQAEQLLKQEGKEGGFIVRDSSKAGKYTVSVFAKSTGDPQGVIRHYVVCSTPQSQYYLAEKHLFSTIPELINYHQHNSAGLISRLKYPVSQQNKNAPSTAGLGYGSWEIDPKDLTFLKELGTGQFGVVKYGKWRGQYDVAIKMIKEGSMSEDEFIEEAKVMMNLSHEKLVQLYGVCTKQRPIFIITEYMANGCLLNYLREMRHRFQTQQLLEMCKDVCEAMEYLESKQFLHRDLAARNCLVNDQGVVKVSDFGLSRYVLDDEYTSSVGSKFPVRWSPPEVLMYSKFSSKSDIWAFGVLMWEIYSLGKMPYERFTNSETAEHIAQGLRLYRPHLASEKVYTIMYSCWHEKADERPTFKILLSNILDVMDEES

As a reminder, the Dmax is the largest share of the target that was removed. Low readings indicate a partial loss of target, high ones a fuller loss of target. By DC50 is commonly meant the concentration at which degradation of the target reaches its halfway point. A higher DC50 goes with degradation only at high concentration. `NC(=O)c1c(-c2ccc(Oc3ccccc3)cc2)nn2c1NCC[C@H]2C1CCN(C2CCN(CCN3CCC(c4ccc5c(c4)C(=O)N(C4CCC(=O)NC4=O)C5=O)CC3)CC2)CC1` (stereo partly drawn) [Compound 327, (7S)-7-(1′-(2-(4-(2-(2,6-dioxopiperidin-3-yl)-1,3-dioxoisoindolin-5-yl)piperidin-1-yl)ethyl)-[1,4′-bipiperidin]-4-yl)-2-(4-phenoxyphenyl)-4,5,6,7-tetrahydropyrazolo[1,5-a]pyrimidine-3-carboxamide]: the IC50 in experiment [1] is more than 10000 nM. For the same compound, in experiment [2], the IC50 lay in the range of 1000 to 10000 nM. In experiment [3], this compound registered a Dmax of more than 75% and a DC50 of 10 to 50 nM.
The like results for `NC(=O)c1c(-c2ccc(Oc3ccccc3)cc2)nn2c1NCC[C@H]2C1CCN(C2CCN(CCN3CCC(c4ccc5c(c4)CN(C4CCC(=O)NC4=O)C5=O)CC3)CC2)CC1` (stereo partly drawn) [Compound 328, (7S)-7-(1′-(2-(4-(2-(2,6-dioxopiperidin-3-yl)-1-oxoisoindolin-5-yl)piperidin-1-yl)ethyl)-[1,4′-bipiperidin]-4-yl)-2-(4-phenoxyphenyl)-4,5,6,7-tetrahydropyrazolo[1,5-a]pyrimidine-3-carboxamide] were, in that order, 1000 to 10000 nM, 1000 to 10000 nM, more than 75% and 10 to 50 nM.
Take `NC(=O)c1c(-c2ccc(Oc3ccccc3)cc2)nn2c1NCC[C@H]2C1CCN(CC2CCN(CC3CCN(c4ccc5c(c4)C(=O)N(C4CCC(=O)NC4=O)C5=O)CC3)CC2)CC1` (stereo partly drawn) [Compound 329, (7S)-7-(1-((1-((1-(2-(2,6-dioxopiperidin-3-yl)-1,3-dioxoisoindolin-5-yl)piperidin-4-yl)methyl)piperidin-4-yl)methyl)piperidin-4-yl)-2-(4-phenoxyphenyl)-4,5,6,7-tetrahydropyrazolo[1,5-a]pyrimidine-3-carboxamide]: the IC50 in experiment [1] and in experiment [2] was more than 10000 nM throughout. The Dmax in experiment [3] was more than 75%. In experiment [3], the DC50 fell in the range of 10 to 50 nM.
As for `NC(=O)c1c(-c2ccc(Oc3ccccc3)cc2)nn2c1NCC[C@H]2C1CCN(CC2CCN(CC3CCN(c4ccc5c(c4)CN(C4CCC(=O)NC4=O)C5=O)CC3)CC2)CC1` (stereo partly drawn) [Compound 330, (7S)-7-(1-((1-((1-(2-(2,6-dioxopiperidin-3-yl)-1-oxoisoindolin-5-yl)piperidin-4-yl)methyl)piperidin-4-yl)methyl)piperidin-4-yl)-2-(4-phenoxyphenyl)-4,5,6,7-tetrahydropyrazolo[1,5-a]pyrimidine-3-carboxamide], the IC50 in experiment [1] and in experiment [2] was 1000 to 10000 nM throughout. For the same compound, the Dmax in experiment [3] is more than 75%. In experiment [3], this compound showed a DC50 of 10 to 50 nM.
On to `NC(=O)c1c(-c2ccc(Oc3ccccc3)cc2)nn2c1NCC[C@H]2C1CCN(CC2CCN(CCN3CCN(c4ccc5c(c4)C(=O)N(C4CCC(=O)NC4=O)C5=O)CC3)CC2)CC1` (stereo partly drawn) [Compound 331, (7S)-7-(1-((1-(2-(4-(2-(2,6-dioxopiperidin-3-yl)-1,3-dioxoisoindolin-5-yl)piperazin-1-yl)ethyl)piperidin-4-yl)methyl)piperidin-4-yl)-2-(4-phenoxyphenyl)-4,5,6,7-tetrahydropyrazolo[1,5-a]pyrimidine-3-carboxamide], for which the IC50 in experiment [1] is 1000 to 10000 nM; in experiment [2] it was more than 10000 nM. Further, the Dmax in experiment [3] was more than 75%. Further, in experiment [3], the DC50 was more than 50 nM.
For `NC(=O)c1c(-c2ccc(Oc3ccccc3)cc2)nn2c1NCC[C@H]2C1CCN(CC2CCN(CCN3CCN(c4ccc5c(c4)CN(C4CCC(=O)NC4=O)C5=O)CC3)CC2)CC1` (stereo partly drawn) [Compound 332, (7S)-7-(1-((1-(2-(4-(2-(2,6-dioxopiperidin-3-yl)-1-oxoisoindolin-5-yl)piperazin-1-yl)ethyl)piperidin-4-yl)methyl)piperidin-4-yl)-2-(4-phenoxyphenyl)-4,5,6,7-tetrahydropyrazolo[1,5-a]pyrimidine-3-carboxamide], in that order: 1000 to 10000 nM, 1000 to 10000 nM, more than 75% and more than 50 nM.
`NC(=O)c1c(-c2ccc(Oc3ccccc3)cc2)nn2c1NCC[C@H]2C1CCN(CC2CCN(CCC3CCN(c4ccc5c(c4)C(=O)N(C4CCC(=O)NC4=O)C5=O)CC3)CC2)CC1` (stereo partly drawn) [Compound 333, (7S)-7-(1-((1-(2-(1-(2-(2,6-dioxopiperidin-3-yl)-1,3-dioxoisoindolin-5-yl)piperidin-4-yl)ethyl)piperidin-4-yl)methyl)piperidin-4-yl)-2-(4-phenoxyphenyl)-4,5,6,7-tetrahydropyrazolo[1,5-a]pyrimidine-3-carboxamide]: in experiment [1], the IC50 is more than 10000 nM. In addition, the IC50 in experiment [2] lay in the range of 1000 to 10000 nM. In experiment [3], this compound showed a Dmax of more than 75% and a DC50 of 10 to 50 nM.
On to `NC(=O)c1c(-c2ccc(Oc3ccccc3)cc2)nn2c1NCC[C@H]2C1CCN(CC2CCN(CCC3CCN(c4ccc5c(c4)CN(C4CCC(=O)NC4=O)C5=O)CC3)CC2)CC1` (stereo partly drawn) [Compound 334, (7S)-7-(1-((1-(2-(1-(2-(2,6-dioxopiperidin-3-yl)-1-oxoisoindolin-5-yl)piperidin-4-yl)ethyl)piperidin-4-yl)methyl)piperidin-4-yl)-2-(4-phenoxyphenyl)-4,5,6,7-tetrahydropyrazolo[1,5-a]pyrimidine-3-carboxamide], for which the IC50 in experiment [1] is more than 10000 nM. Moreover, the IC50 in experiment [2] was more than 10000 nM. In experiment [3], the Dmax is more than 75% and the DC50 lay in the range of 10 to 50 nM.
In the case of `NC(=O)c1c(-c2ccc(Oc3ccccc3)cc2)nn2c1NCC[C@H]2C1CCN(CC2CCN(CCN3CCC(c4ccc5c(c4)C(=O)N(C4CCC(=O)NC4=O)C5=O)CC3)CC2)CC1` (stereo partly drawn) [Compound 335, (7S)-7-(1-((1-(2-(4-(2-(2,6-dioxopiperidin-3-yl)-1,3-dioxoisoindolin-5-yl)piperidin-1-yl)ethyl)piperidin-4-yl)methyl)piperidin-4-yl)-2-(4-phenoxyphenyl)-4,5,6,7-tetrahydropyrazolo[1,5-a]pyrimidine-3-carboxamide], the IC50 in experiment [1] and in experiment [2] was 1000 to 10000 nM throughout. Also, in experiment [3], the Dmax is more than 75%. For the same compound, the DC50 in experiment [3] was more than 50 nM.
Consider `NC(=O)c1c(-c2ccc(Oc3ccccc3)cc2)nn2c1NCC[C@H]2C1CCN(CC2CCN(CCN3CCC(c4ccc5c(c4)CN(C4CCC(=O)NC4=O)C5=O)CC3)CC2)CC1` (stereo partly drawn) [Compound 336, (7S)-7-(1-((1-(2-(4-(2-(2,6-dioxopiperidin-3-yl)-1-oxoisoindolin-5-yl)piperidin-1-yl)ethyl)piperidin-4-yl)methyl)piperidin-4-yl)-2-(4-phenoxyphenyl)-4,5,6,7-tetrahydropyrazolo[1,5-a]pyrimidine-3-carboxamide], for which the IC50 in experiment [1] fell in the range of 1000 to 10000 nM. For the same compound, the IC50 in experiment [2] lay in the range of 1000 to 10000 nM. In experiment [3], this compound registered a Dmax of more than 75% and a DC50 of 10 to 50 nM.
In the case of `NC(=O)c1c(-c2ccc(Oc3ccccc3)cc2)nn2c1NCCC2C1CCN(C2CCN(C(=O)N3CCN(c4ccc5c(c4)C(=O)N(C4CCC(=O)NC4=O)C5=O)CC3)CC2)CC1` (stereo not drawn) [Compound 337, 7-(1′-(4-(2-(2,6-dioxopiperidin-3-yl)-1,3-dioxoisoindolin-5-yl)piperazine-1-carbonyl)-[1,4′-bipiperidin]-4-yl)-2-(4-phenoxyphenyl)-4,5,6,7-tetrahydropyrazolo[1,5-a]pyrimidine-3-carboxamide], the IC50 in experiment [1] was in the range of 1000 to 10000 nM. Moreover, in experiment [2], the IC50 is more than 10000 nM. In experiment [3], this compound came in with a Dmax of more than 50% and a DC50 of more than 50 nM.
On to `NC(=O)c1c(-c2ccc(Oc3ccccc3)cc2)nn2c1NCCC2C1CCN(C2CCN(C(=O)N3CCN(c4ccc5c(c4)CN(C4CCC(=O)NC4=O)C5=O)CC3)CC2)CC1` (stereo not drawn) [Compound 338, 7-(1′-(4-(2-(2,6-dioxopiperidin-3-yl)-1-oxoisoindolin-5-yl)piperazine-1-carbonyl)-[1,4′-bipiperidin]-4-yl)-2-(4-phenoxyphenyl)-4,5,6,7-tetrahydropyrazolo[1,5-a]pyrimidine-3-carboxamide], for which the IC50 in experiment [1] was more than 10000 nM. In experiment [2], the IC50 is 1000 to 10000 nM. Besides, in experiment [3], the Dmax is more than 50% and the DC50 is more than 50 nM.
Consider `NC(=O)c1c(-c2ccc(Oc3ccccc3)cc2)nn2c1NCCC2C1CCN(C2CCN(C(=O)N3CCN(Cc4ccc5c(c4)C(=O)N(C4CCC(=O)NC4=O)C5=O)CC3)CC2)CC1` (stereo not drawn) [Compound 339, 7-(1′-(4-((2-(2,6-dioxopiperidin-3-yl)-1,3-dioxoisoindolin-5-yl)methyl)piperazine-1-carbonyl)-[1,4′-bipiperidin]-4-yl)-2-(4-phenoxyphenyl)-4,5,6,7-tetrahydropyrazolo[1,5-a]pyrimidine-3-carboxamide], for which the IC50 in experiment [1] was more than 10000 nM. Besides, in experiment [2], the IC50 was more than 10000 nM. In experiment [3], this compound showed a Dmax of more than 50% and a DC50 of more than 50 nM.
On to `NC(=O)c1c(-c2ccc(Oc3ccccc3)cc2)nn2c1NCCC2C1CCN(C2CCN(C(=O)N3CCN(Cc4ccc5c(c4)CN(C4CCC(=O)NC4=O)C5=O)CC3)CC2)CC1` (stereo not drawn) [Compound 340, 7-(1′-(4-((2-(2,6-dioxopiperidin-3-yl)-1-oxoisoindolin-5-yl)methyl)piperazine-1-carbonyl)-[1,4′-bipiperidin]-4-yl)-2-(4-phenoxyphenyl)-4,5,6,7-tetrahydropyrazolo[1,5-a]pyrimidine-3-carboxamide], for which the IC50 in experiment [1] and in experiment [2] was more than 10000 nM throughout. The compound also yielded a Dmax in experiment [3] of more than 50%. The DC50 in experiment [3] is more than 50 nM.
For the compound `NC(=O)c1c(-c2ccc(Oc3ccccc3)cc2)nn2c1NCCC2C1CCN(C2CCN(C(=O)N3CCC(N4CCN(c5ccc6c(c5)C(=O)N(C5CCC(=O)NC5=O)C6=O)CC4)CC3)CC2)CC1` (stereo not drawn) [Compound 341, 7-(1′-(4-(4-(2-(2,6-dioxopiperidin-3-yl)-1,3-dioxoisoindolin-5-yl)piperazin-1-yl)piperidine-1-carbonyl)-[1,4′-bipiperidin]-4-yl)-2-(4-phenoxyphenyl)-4,5,6,7-tetrahydropyrazolo[1,5-a]pyrimidine-3-carboxamide], the IC50 in experiment [1] is less than 1000 nM; in experiment [2] it was 1000 to 10000 nM. The Dmax in experiment [3] was more than 90%. The compound also came in with a DC50 in experiment [3] of 10 to 50 nM.
